# According to article PMC9944328 (Nature Communications, 2023):
# System: SSTR2 mutants
# Assay: SSTRs Gi-mediated cAMP inhibition, GloSensor, HEK293, 5 μM forskolin, 15 min room temperature (SSTR2 mutants)
# Format: cell-based, human
# Conditions: for Fold of WT: Gi signaling EC50
# Protocol: The levels of the intracellular 3′, 5′-cyclic AMP (cAMP) were measured by the GloSensor cAMP assay (Promega) as described in the previous studies[28],[41] which has been widely used. The human full-length SSTRs and mutants were cloned into the pcDNA3.1+ vector with a HA signal sequence followed by a Flag tag at the N-terminus. HEK293 cells (ATCC, CRL-1573) were seeded into 6-well microplates at a density of 1.0 × 10^6 cells/well and cultured for 24 h at 37 °C with 5% CO2. Cells were then co-transfected with SSTR wild-type or mutants and GloSensor plasmids. After 24 h of transfection, the cells were dissociated with TrypLE™ Express Enzyme (1X) (Thermo Fisher Scientific) and collected by centrifugation at 500 × g for 5 min. Then the collected cells were suspended in Hank’s balanced salt solution [HBSS (Thermo Fisher Scientific)] supplemented with […] (YEASEN), and then the suspension cells were seeded into 96-well plates with 90 μl/well. After incubating at room temperature for 40 min, 5 μM forskolin and ligands diluted in HBSS were added to each well and the plates were incubated at room temperature for 15 min. […] were measured using the Synergy H1 microplate reader (BioTek) and the data presented are means of at least three independent experiments.
smiles,measurement,setting,value
N#Cc1cccc(-c2ccc3ncc(-c4cc(F)cc(F)c4)c(N4CCC(N)CC4)c3c2)c1O [paltusotine],Activation potency of mutant,"D295(7.36) substituted with a bulkier side chain, SSTR2",reduced the activation potency
same,"Bottom (best-fit value), cAMP inhibition",D295A-1 (run 1),-5.811
same,"LogEC50 (best-fit value), cAMP inhibition",D295A-1 (run 1),-7.797
same,"Span (best-fit value), cAMP inhibition",D295A-1 (run 1),125.1
same,"Top (best-fit value), cAMP inhibition",D295A-1 (run 1),119.3
same,"Bottom (best-fit value), cAMP inhibition",D295A-2 (run 2),-4.778
same,"LogEC50 (best-fit value), cAMP inhibition",D295A-2 (run 2),-7.798
same,"Span (best-fit value), cAMP inhibition",D295A-2 (run 2),119.6
same,"Top (best-fit value), cAMP inhibition",D295A-2 (run 2),114.8
same,"Bottom (best-fit value), cAMP inhibition",D295A-3 (run 3),-4.901
same,"LogEC50 (best-fit value), cAMP inhibition",D295A-3 (run 3),-7.743
same,"Span (best-fit value), cAMP inhibition",D295A-3 (run 3),121.4
same,"Top (best-fit value), cAMP inhibition",D295A-3 (run 3),116.5
same,Bottom (best-fit),"D295F, run 1",-4.815
same,LogEC50,"D295F, run 1",-9.49
same,Span (best-fit),"D295F, run 1",83.08
same,Top (best-fit),"D295F, run 1",78.27
same,Bottom (best-fit),"D295F, run 2",-4.16
same,LogEC50,"D295F, run 2",-9.689
same,Span (best-fit),"D295F, run 2",84.37
same,Top (best-fit),"D295F, run 2",80.21
same,Bottom (best-fit),"D295F, run 3",9.942
same,LogEC50,"D295F, run 3",-8.808
same,Span (best-fit),"D295F, run 3",67.74
same,Top (best-fit),"D295F, run 3",77.68
same,Bottom (best-fit value),F208A-1 (run 1),6.193
same,LogEC50 (best-fit value),F208A-1 (run 1),-7.826
same,Span (best-fit value),F208A-1 (run 1),90.63
same,Top (best-fit value),F208A-1 (run 1),96.82
same,Bottom (best-fit value),F208A-2 (run 2),3.33
same,LogEC50 (best-fit value),F208A-2 (run 2),-7.007
same,Span (best-fit value),F208A-2 (run 2),88.37
same,Top (best-fit value),F208A-2 (run 2),91.7
same,Bottom (best-fit value),F208A-3 (run 3),-2.358
same,LogEC50 (best-fit value),F208A-3 (run 3),-7.101
same,Span (best-fit value),F208A-3 (run 3),89.17
same,Top (best-fit value),F208A-3 (run 3),86.81
same,Bottom (best-fit value),F265A-1 (run 1),-8.311
same,LogEC50 (best-fit value),F265A-1 (run 1),-7.946
same,Span (best-fit value),F265A-1 (run 1),113.6
same,Top (best-fit value),F265A-1 (run 1),105.3
same,Bottom (best-fit value),F265A-2 (run 2),-6.152
same,LogEC50 (best-fit value),F265A-2 (run 2),-7.834
same,Span (best-fit value),F265A-2 (run 2),121
same,Top (best-fit value),F265A-2 (run 2),114.8
same,Bottom (best-fit value),F265A-3 (run 3),-8.585
same,LogEC50 (best-fit value),F265A-3 (run 3),-8.008
same,Span (best-fit value),F265A-3 (run 3),129.6
same,Top (best-fit value),F265A-3 (run 3),121
same,Bottom (best-fit value),F272A-1 (run 1),9.906
same,"LogEC50 (best-fit value), cAMP inhibition",F272A-1 (run 1),-7.753
same,"Span (best-fit value), cAMP inhibition",F272A-1 (run 1),47.19
same,Top (best-fit value),F272A-1 (run 1),57.1
same,Bottom (best-fit value),F272A-2 (run 2),0.969
same,"LogEC50 (best-fit value), cAMP inhibition",F272A-2 (run 2),-7.573
same,"Span (best-fit value), cAMP inhibition",F272A-2 (run 2),51.72
same,Top (best-fit value),F272A-2 (run 2),52.69
same,Bottom (best-fit value),F272A-3 (run 3),2.026
same,"LogEC50 (best-fit value), cAMP inhibition",F272A-3 (run 3),-6.838
same,"Span (best-fit value), cAMP inhibition",F272A-3 (run 3),59.81
same,Top (best-fit value),F272A-3 (run 3),61.84
same,"Bottom (best-fit value), cAMP inhibition",F294A-1 (run 1),3.955
same,"LogEC50 (best-fit value), cAMP inhibition",F294A-1 (run 1),-8.447
same,"Span (best-fit value), cAMP inhibition",F294A-1 (run 1),85.58
same,"Top (best-fit value), cAMP inhibition",F294A-1 (run 1),89.53
same,"Bottom (best-fit value), cAMP inhibition",F294A-2 (run 2),-11.05
same,"LogEC50 (best-fit value), cAMP inhibition",F294A-2 (run 2),-8.376
same,"Span (best-fit value), cAMP inhibition",F294A-2 (run 2),101.1
same,"Top (best-fit value), cAMP inhibition",F294A-2 (run 2),90.09
same,"Bottom (best-fit value), cAMP inhibition",F294A-3 (run 3),15.03
same,"LogEC50 (best-fit value), cAMP inhibition",F294A-3 (run 3),-9.824
same,"Span (best-fit value), cAMP inhibition",F294A-3 (run 3),106.4
same,"Top (best-fit value), cAMP inhibition",F294A-3 (run 3),121.4
same,Bottom (best-fit),"F294Y, run 1",11.7
same,LogEC50,"F294Y, run 1",-9.133
same,Span (best-fit),"F294Y, run 1",95.55
same,Top (best-fit),"F294Y, run 1",107.3
same,Bottom (best-fit),"F294Y, run 2",3.363
same,LogEC50,"F294Y, run 2",-9.003
same,Span (best-fit),"F294Y, run 2",99.71
same,Top (best-fit),"F294Y, run 2",103.1
same,Bottom (best-fit),"F294Y, run 3",-9.817
same,LogEC50,"F294Y, run 3",-9.17
same,Span (best-fit),"F294Y, run 3",128.4
same,Top (best-fit),"F294Y, run 3",118.6
same,Fold of WT,SSTR2 D295(7.36)A,1.30
same,Fold of WT,SSTR2 F127(3.37)A,0.54
same,Fold of WT,SSTR2 F208(5.38)A,34.16
same,Fold of WT,SSTR2 F265(6.44)A,6.35
same,Fold of WT,SSTR2 F272A,33.58
same,Fold of WT,SSTR2 F294(7.35)A,1.40
same,Fold of WT,SSTR2 I130(3.40)A,10.09
same,Fold of WT,SSTR2 I195(45.52)A,44.36
same,Fold of WT,SSTR2 K291(7.32)A,2.78
same,Fold of WT,SSTR2 L99(2.60)A,9.09
same,Fold of WT,SSTR2 N276(6.55)A,0.88
same,Fold of WT,SSTR2 P220(5.50)A,1.71
same,Fold of WT,SSTR2 Q102(2.63)A,16.51
same,Fold of WT,SSTR2 T194(45.51)A,51.98
same,Fold of WT,SSTR2 V103(2.64)A,17.54
same,Fold of WT,SSTR2 W269(6.48)A,0.23
